Results published in patent US20100273772A1, “Bisaryl Alkynylamides as Negative Allosteric Modulators of Metabotropic Glutamate Receptor 5 (MGLUR5)” (Wyeth LLC, priority 2009, published 2010).

How the values were obtained:
rat mGluR5 receptor = target: T1, rat mGluR5 receptor (Rattus norvegicus, UniProt P31424); assay: [3H]-MPEP binding HEK-293 cell membranes expressing a rat mGluR5 receptor; conditions: displacement of 4 nM [3H]-MPEP, HEK-293 cell membranes expressing rat mGluR5, 60 minute at room temperature; read-out: mGluR5 Ligand Binding DR Ki
T1 construct: expressed in transfected cells; host or cells: HEK-293
Procedure: TITLE: [^3H]-MPEP binding HEK-293 cell membranes expressing a rat mGluR5 receptor. PURPOSE: To identify high affinity compounds at the rat mGluR5 receptor based on their ability to displace the mGluR5 negative allosteric modulator, MPEP.
mGluR5 expressing HEK-293 cells are scraped off the plate, transferred to centrifuge tubes, and washed twice by centrifugation (2000 rpm for 10 min., 4° C.) in buffer (50 mM Tris pH 7.5). The resulting pellets are aliquoted and placed at −80° C. On the day of assay, the cells are thawed on ice, and resuspended in buffer. The binding assay is performed in a 96 well microtiter plate in a total volume of 250 μL. Non-specific binding is determined in the presence of 10 μM MPEP. Binding reaction includes a final radioligand [^3H]-MPEP concentration of 4 nM and 12-25 ug membrane protein per well. Following a 60 minute incubation at room temperature, the reaction is terminated by the addition of ice cold buffer and rapid filtration through a GF/B filter presoaked for 30 minutes in 0.5% PEI. Compounds are initially tested in a single point assay to determine percent inhibition at 10 μM. Subsequently, Ki values are determined for compounds defined to be active.
% inhibition and Ki values generated by GraphPad Prism and Excel Fit. IC50 values are calculated using GraphPad by fitting to a 1 or 2 site-binding model. Ki values are calculated from the apparent IC50 values using the Cheng-Prussof equation:
(§1) where [L]=concentration of free radioligand and Kd=dissociation constant of radioligand for the receptor. TITLE: Identification of metabotropic glutamate receptor 5 antagonists using a stable, sensitive fluorescence-based screening system PURPOSE: The aim of the research presented here was to develop a robust functional assay to measure changes in intracellular calcium, with the goal of identifying potent mGluR5 antagonists.

[1] = target: T2, metabotropic glutamate receptor 5 (Rattus norvegicus, UniProt P31424); assay: FLIPR Calcium 3 fluorescence-based functional assay of intracellular calcium, mGluR5 antagonist activity; format: cell-based; conditions: inhibition of glutamate (EC90, ~50 uM) stimulated calcium levels, mGluR5 HEK-293 cells; read-out: mGluR5 FLIPR MP Antagonist DR IC50
T2 construct: expressed in transfected cells; host or cells: HEK-293
Excerpt: as §1
The FLIPR Calcium 3 Assay Kit is designed to work with many cell types, both adherent and non-adherent. Optimal cell conditions for the FLIPR Calcium 3 Assay Kit require the creation of a confluent cell monolayer before placing the plates in FLIPR or FlexStation. In general, we start with 50,000 mGluR5 HEK-293 cells/well for a 96-well plate. For adherent cells, seeding cells overnight with a plating volume of 100 μL/well worked for 96-well plates.
Remove cell plates from the incubator. Remove the supernatant medium. Add 180 ul of Loading Buffer to each well (for 96-well plates). HBSS buffer component B) pipette 100 mL of 10× Hank's Balanced Salt Solution and 20 mL of 1M Hepes buffer
Incubate cell plates for 1 hour at 37° C. and then keep the plates at room temperature until used.
After incubation, transfer the plates directly to FLIPR and begin the calcium assay as described in the FLIPR system manual. For a signal test, a starting average count of ˜10,000 is recommended. Recommended experimental setup parameters are as follows. Faster addition speeds can lead to better mixing of compounds and lower signal variance across the plate.
Test or reference compound is added to the 96-well plate (manually). […] Relative Fluorescence Units (RFUs) are recorded over a given time period (stated above) depending on the platform system used.
For antagonists, results are expressed as % inhibition of glutamate stimulated Calcium levels. IC50 values were calculated by Prism GraphPad using a 4-parameter logistic equation. IC50 values are calculated using GraphPad by fitting to a 1 site-model.

T2 sequence (P31424 21-1203): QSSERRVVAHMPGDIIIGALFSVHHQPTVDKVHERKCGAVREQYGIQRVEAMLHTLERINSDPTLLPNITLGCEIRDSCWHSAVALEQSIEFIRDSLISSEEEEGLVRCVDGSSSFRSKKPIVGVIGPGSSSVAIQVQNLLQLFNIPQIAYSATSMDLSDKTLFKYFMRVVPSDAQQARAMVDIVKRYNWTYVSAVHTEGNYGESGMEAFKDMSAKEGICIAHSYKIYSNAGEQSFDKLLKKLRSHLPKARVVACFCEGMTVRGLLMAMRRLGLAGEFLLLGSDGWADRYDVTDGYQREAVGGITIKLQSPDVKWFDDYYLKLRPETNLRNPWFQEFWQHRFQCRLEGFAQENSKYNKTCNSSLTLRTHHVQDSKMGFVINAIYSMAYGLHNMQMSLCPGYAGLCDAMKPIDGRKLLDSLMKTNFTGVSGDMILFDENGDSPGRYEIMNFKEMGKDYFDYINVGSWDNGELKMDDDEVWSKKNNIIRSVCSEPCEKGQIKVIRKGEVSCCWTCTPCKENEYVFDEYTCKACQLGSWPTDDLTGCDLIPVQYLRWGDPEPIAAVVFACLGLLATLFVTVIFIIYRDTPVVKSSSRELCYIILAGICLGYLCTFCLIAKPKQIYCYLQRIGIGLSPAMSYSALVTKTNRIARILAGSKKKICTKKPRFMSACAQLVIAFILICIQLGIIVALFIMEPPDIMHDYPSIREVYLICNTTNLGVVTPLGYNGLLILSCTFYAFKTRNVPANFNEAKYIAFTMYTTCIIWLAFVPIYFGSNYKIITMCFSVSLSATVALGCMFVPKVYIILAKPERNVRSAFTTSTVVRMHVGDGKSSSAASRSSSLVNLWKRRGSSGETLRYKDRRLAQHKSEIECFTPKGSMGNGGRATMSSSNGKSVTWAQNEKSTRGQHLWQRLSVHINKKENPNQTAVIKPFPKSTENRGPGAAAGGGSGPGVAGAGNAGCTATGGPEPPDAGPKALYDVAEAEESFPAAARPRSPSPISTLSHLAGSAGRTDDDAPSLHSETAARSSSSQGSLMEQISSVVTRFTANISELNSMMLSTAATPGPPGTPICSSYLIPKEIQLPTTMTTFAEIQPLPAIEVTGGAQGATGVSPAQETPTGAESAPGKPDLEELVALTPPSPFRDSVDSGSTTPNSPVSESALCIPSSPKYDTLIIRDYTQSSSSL
T1 sequence (P31424 21-1203): as above

Ki (rat mGluR5 receptor) | IC50 [1] | Compound
1 nM | 125 nM | 2-[4-methoxy-3-(pyridin-2-ylethynyl)benzoyl]-7-(trifluoromethyl)-1,2,3,4-tetrahydroisoquinoline [Example 16]
3 nM | 23 nM | 7-fluoro-2-[4-methoxy-3-(pyridin-2-ylethynyl)benzoyl]-1,2,3,4-tetrahydroisoquinoline [Example 9]
4 nM | 10 nM | COc1ccc(C(=O)N2Cc3ccccc3C2)cc1C#Cc1ccccn1 [Example 1, 2-[4-Methoxy-3-(pyridin-2-ylethynyl)benzoyl]isoindoline]
3 nM | 24 nM | COc1ccc(C(=O)N2CCc3ccccc3C2)cc1C#Cc1ccccn1 [Example 2, 2-[4-methoxy-3-(pyridin-2-ylethynyl)benzoyl]-1,2,3,4-tetrahydroisoquinoline]
2 nM | 44 nM | COc1ccc(C(=O)N2CCc3c(F)cccc3C2)cc1C#Cc1ccccn1 [Example 3, 5-fluoro-2-[4-methoxy-3-(pyridin-2-ylethynyl)benzoyl]-1,2,3,4-tetrahydroisoquinoline]
0.4 nM | 134 nM | COc1ccc(C(=O)N2CCc3c(cccc3C(F)(F)F)C2)cc1C#Cc1ccccn1 [Example 4, 2-[4-methoxy-3-(pyridin-2-ylethynyl)benzoyl]-5-(trifluoromethyl)-1,2,3,4-tetrahydroisoquinoline]
2 nM | 151 nM | COc1ccc(C(=O)N2CCc3cccc(C(F)(F)F)c3C2)cc1C#Cc1ccccn1 [Example 5, 2-[4-methoxy-3-(pyridin-2-ylethynyl)benzoyl]-8-(trifluoromethyl)-1,2,3,4-tetrahydroisoquinoline]
2 nM | 52 nM | COc1ccc(C(=O)N2CCc3c(F)ccc(F)c3C2)cc1C#Cc1ccccn1 [Example 6, 5,8-difluoro-2-[4-methoxy-3-(pyridin-2-ylethynyl)benzoyl]-1,2,3,4-tetrahydroisoquinoline]
 | 176 nM | COc1ccc(C(=O)N2CCc3c(Cl)cc(Cl)cc3C2)cc1C#Cc1ccccn1 [Example 7, 5,7-dichloro-2-[4-methoxy-3-(pyridin-2-ylethynyl)benzoyl]-1,2,3,4-tetrahydroisoquinoline]
1 nM | 16 nM | COc1ccc(C(=O)N2CCc3ccc(Cl)cc3C2)cc1C#Cc1ccccn1 [Example 8, 7-chloro-2-[4-methoxy-3-(pyridin-2-ylethynyl)benzoyl]-1,2,3,4-tetrahydroisoquinoline]
1 nM | 50 nM | COc1ccc(C(=O)N2CCc3c(Cl)cccc3C2)cc1C#Cc1ccccn1 [Example 10, 5-chloro-2-[4-methoxy-3-(pyridin-2-ylethynyl)benzoyl]-1,2,3,4-tetrahydroisoquinoline]
11 nM | 130 nM | COc1ccc(C(=O)N2CCc3ccc(C#N)cc3C2)cc1C#Cc1ccccn1 [Example 11, 2-[4-methoxy-3-(pyridin-2-ylethynyl)benzoyl]-1,2,3,4-tetrahydroisoquinoline-7-carbonitrile]
8 nM | > 1000 nM | COc1ccc(C(=O)N2CCc3[nH]c4ccccc4c3C2)cc1C#Cc1ccccn1 [Example 12, 2-[4-methoxy-3-(pyridin-2-ylethynyl)benzoyl]-2,3,4,5-tetrahydro-1H-pyrido[4,3-b]indole]
5 nM | 44 nM | COc1ccc(C(=O)N2CCc3sccc3C2)cc1C#Cc1ccccn1 [Example 13, 5-[4-methoxy-3-(pyridin-2-ylethynyl)benzoyl]-4,5,6,7-tetrahydrothieno[3,2-c]pyridine]
8 nM | 51 nM | COc1ccc(C(=O)N2CCc3ncc(Br)cc3C2)cc1C#Cc1ccccn1 [Example 14, 3-bromo-6-[4-methoxy-3-(pyridin-2-ylethynyl)benzoyl]-5,6,7,8-tetrahydro-1,6-naphthyridine]
96 nM |  | COc1ccc(C(=O)N2CCc3nc[nH]c(=O)c3C2)cc1C#Cc1ccccn1 [Example 15, 6-[4-methoxy-3-(pyridin-2-ylethynyl)benzoyl]-5,6,7,8-tetrahydropyrido[4,3-d]pyrimidin-4(3H)-one]
612 nM |  | COc1ccc(C(=O)N2Cc3ccccc3C2CC(C)(C)O)cc1C#Cc1ccccn1 (stereo not shown) [Example 17, 1-{2-[4-methoxy-3-(pyridin-2-ylethynyl)benzoyl]-2,3-dihydro-1H-isoindol-1-yl}-2-methylpropan-2-ol]
6 nM | 30 nM | COc1ccc(C(=O)N2CCc3c(OC)ccc(OC)c3C2)cc1C#Cc1ccccn1 [Example 19, 5,8-dimethoxy-2-[4-methoxy-3-(pyridin-2-ylethynyl)benzoyl]-1,2,3,4-tetrahydroisoquinoline]
> 10000 nM |  | COc1ccc(C(=O)N2CCc3cccc(C4CCN(S(C)(=O)=O)CC4)c3C2)cc1C#Cc1ccccn1 [Example 23, 2-[4-methoxy-3-(pyridin-2-ylethynyl)benzoyl]-8-[1-(methylsulfonyl)piperidin-4-yl]-1,2,3,4-tetrahydroisoquinoline]
520 nM |  | COc1ccc(C(=O)N2Cc3ccccc3C(Oc3ccc(C(F)(F)F)cc3)C2)cc1C#Cc1ccccn1 (stereo not shown) [Example 24, 2-[4-methoxy-3-(pyridin-2-ylethynyl)benzoyl]-4-[4-(trifluoromethyl)phenoxy]-1,2,3,4-tetrahydroisoquinoline]
178 nM |  | COc1ccc(C(=O)N2CCc3ccccc3[C@H]2[C@@H]2CCCO2)cc1C#Cc1ccccn1 [Example 28, (1S)-2-[4-methoxy-3-(pyridin-2-ylethynyl)benzoyl]-1-[(2S)-tetrahydrofuran-2-yl]-1,2,3,4-tetrahydroisoquinoline]
327 nM |  | COc1ccc(C(=O)N2CCc3ccccc3C2Cc2ccccc2)cc1C#Cc1ccccn1 (stereo not shown) [Example 30, 1-benzyl-2-[4-methoxy-3-(pyridin-2-ylethynyl)benzoyl]-1,2,3,4-tetrahydroisoquinoline]
269 nM |  | COc1ccc(C(=O)N2CCn3c(nnc3C(F)(F)F)C2)cc1C#Cc1ccccn1 [Example 49, 7-{[4-methoxy-3-(pyridin-2-ylethynyl)phenyl]carbonyl}-3-(trifluoromethyl)-5,6,7,8-tetrahydro[1,2,4]triazolo[4,3-a]pyrazine]
112 nM |  | COc1ccc(C(=O)N2CCNc3ccccc3C2)cc1C#Cc1ccccn1 [Example 56, 4-{[4-methoxy-3-(pyridin-2-ylethynyl)phenyl]carbonyl}-2,3,4,5-tetrahydro-1H-1,4-benzodiazepine]
189 nM |  | O=C(c1ccc(OCC2CC2)c(C#Cc2ccccn2)c1)N1Cc2ccccc2C1 [Example 80, 2-{[4-(Cyclopropylmethoxy)-3-(pyridin-2-ylethynyl)phenyl]carbonyl}-2,3-dihydro-1H-isoindole]
34 nM |  | O=C(c1ccc(C(F)(F)F)c(C#Cc2ccccn2)c1)N1CCc2cccnc2C1 [Example 99, 7-{[3-(Pyridin-2-ylethynyl)-4-(trifluoromethyl)phenyl]carbonyl}-5,6,7,8-tetrahydro-1,7-naphthyridine]
120 nM |  | O=C(c1ccc(C(F)(F)F)c(C#Cc2ccccn2)c1)N1Cc2ccncc2C1 [Example 102, 2-{[3-(Pyridin-2-ylethynyl)-4-(trifluoromethyl)phenyl]carbonyl}-2,3-dihydro-1H-pyrrolo[3,4-c]pyridine]

Compound | Ki (rat mGluR5 receptor) | IC50 [1]
COc1ccc(C(=O)N2C3CCC2c2ccccc23)cc1C#Cc1ccccn1 [Example 18, 9-[4-methoxy-3-(pyridin-2-ylethynyl)benzoyl]-1,2,3,4-tetrahydro-1,4-epiminonaphthalene] | 1120 nM | 
